Non-standard residues stand in square brackets, D forms with d. Residues, ends and D or L forms follow the SMILES beside them. No end group written: not given here.
Columns and labels:
[1] = test system: human red blood cells; experiment: Hemolytic activity, hemoglobin release from red blood cells (12 hour protocol)
Protocol: Determination of hemolytic activity is measured through the release of hemoglobin from human red blood cells as measured spectrophotometrically.
Briefly, a dilution series of the peptide was prepared in two-fold dilutions from 512 to 1 μg/mL. Triplicate determinations of each peptide concentration were added to 1% human red blood cells and incubated for 12 hours at 37° C. The negative control for hemolysis consisted of 1% red blood cells with no peptide added. The positive control for hemolysis was 1% red blood cells in 0.15M NH4Cl. Hemoglobin release was measured at an absorbance of 562 nm.
Percent hemolysis is calculated as the ratio of the optical density (OD) of the peptide relative to the OD of the positive control for hemolysis.

[2] = Surface plasmon resonance (Biacore T-100) binding of peptides to immobilized biotin-labeled hyaluronic acid; design: species or system rooster; conditions: SPR, biotin-HA immobilized on streptavidin chip
Protocol: Surface plasmon resonance spectroscopy (SPR) studies were performed on a Biacore T-100 to quantitate the binding of peptides to hyaluronic acid (HA). Biotin-labeled hyaluronic acid (Sigma B1557, hyaluron sodium salt from rooster comb with >97% purity, average approximately 850 kDd, 98% labeled) was immobilized on one of the four flow cells of a streptavidin-coated series S sensor chip SA. […] Peptides were then injected across the surface and the degree of binding interaction is measured in response units (RU).
The average net binding for HABP35 to HA was 399±77 RU or significant binding. The other HA binding peptides also had positive RU values.

[3] = test system: S. aureus strain PS80; experiment: Mouse model of S. aureus surgical wound infection; assay type: in vivo, C57BL6 mice; conditions: 100 μg into wound at time of challenge with 10^2 CFU; 3 days later
Protocol: Bacterial strains. S. aureus strain PS80 (serotype 8) was obtained from the American Type Culture collection (#27700) and is a potent inducer of intraabdominal abscess formation. S. aureus COL is a methicillin resistant strain that produces a serotype 5 capsule. Staphylococci were cultivated for 24 h at 37° C. on Columbia agar (Difco Laboratories, Detroit, Mich.) supplemented with 2% NaCl.
Mouse model of S. aureus wound infection. Mice (C57BL6, male, 6-8 wk old) were obtained from Jackson Laboratories (Bar Harbor, Me.). Groups of mice (N=4/group/experiment) were anesthetized with 100 mg/kg ketamine and 10 mg/kg xylazine, their right thighs were shaved, and the surgical area was disinfected with iodine and 70% ethanol. An incision was made in the skin to expose the thigh muscle, and a 1-cm incision was made with a scalpel into the thigh muscle to the depth of the bone. The muscle was then closed with one 4-0 silk suture, and 10 μl of a S. aureus suspension ranging in dose from 10^2 to 10^4 CFU was introduced into the incision under the suture. The skin was closed with four additional Prolene sutures. The mice were euthanized at 3 days post-surgery. The wounded muscle tissue was excised, weighed (˜0.08 g), and homogenized in 1 ml of tryptic soy broth. Serial dilutions of the homogenates were plated in duplicate and results were expressed as CFU/g tissue. Peptides were administered to animals in two ways. For most experiments, HABPs were solubilized in PBS and administered with a pipet into the wound in a 10 μl volume following challenge with bacteria. A 100 μg dose was used for most experiments. For therapeutic studies, peptide was administered via a 1 ml tuberculin syringe fitted with a 25 gauge needle in a 0.25 ml volume injected into the thigh muscle containing the wound distal from the incision site.
Gross pathology and histologic analysis of host response. […] Histological examination of these wounds confirmed these findings. Muscle tissue was harvested from mice at designated intervals post-surgery, fixed in 10% buffered formalin, and mounted in paraffin; 5 to 6-μm sections were cut and stained with hematoxylin and eosin for microscopic examination. […] The cellular infiltrate was primarily comprised of PMNs and fibrin.
Statistical analyses. All animal experiments were performed at least two times and the data pooled. Comparison of S. aureus CFU/g tissue was made by the Welch modification of the unpaired Student t test (InStat, GraphPad Software, San Diego, Calif.).

[4] = test system: Wild Type GAS (HA encapsulated); experiment: Fluorometry binding of FITC-conjugated peptide to encapsulated GAS; design: species or system Group A Streptococcus
Protocol: (§1) Bacterial strains: GAS strain 950771 is a moderately encapsulated M3 clinical isolate from a child with post-varicella necrotizing fasciitis and sepsis, and an isogenic capsule deficient mutant, 188, derived from 950771. GAS were grown in Todd-Hewitt broth (Difco) to mid-exponential phase OD650 of 0.15 at 37° C. for all experiments. Commercially available trypticase-soy agar medium supplemented with 5% vol/vol sheep blood (BAP)(PML Microbiologicals, British Columbia, Canada) were used for all plate cultures. S. equi s(ATCC 53185) and P. multocida (ATCC 11039) were purchased from ATCC and cultured as recommended. Briefly, S. equi was cultured in Todd-Hewitt broth and S. uberis and P. multocida were cultured in Brain heart infusion (Difco) to OD 650 of 0.15 at 37° C. Quantitative cultures were performed in parallel with each experiment to verify the multiplicity of infection (MOI) of the inoculum.
(§2) Binding of HABP to HA and HA-encapsulated bacteria: To assess whether HABP are able to associate specifically with the GAS capsule, bacteria were cultured to mid-log phase, for maximal HA capsule expression, and incubated with either 10 μg/ml of FITC-conjugated HABP01 or SCRM, with purified HA at 1 mg/ml, as a positive control, or an isogenic mutant strain of GAS deficient in HA capsule, as a negative control. A GAS-specific antibody was used to control for the number of bacteria per well.

[5] = test system: GAS internalization by keratinocytes; experiment: Bacterial internalization by keratinocyte monolayers; assay type: cell-based, Group A Streptococcus / human keratinocytes; conditions: 100 μg/ml, 4 hours
Protocol: Effect of HABP on bacterial internalization by keratinocytes. Encapsulated GAS are poorly internalized by keratinocytes. Yet in the presence of HABPs, intracellular encapsulated GAS are observed by microscopy. To quantify this internalization, keratinocyte monolayers were infected with HA-encapsulated bacteria in the presence of 100 μg/ml of either HABP01 or SCRM for 4 hours. Penicillin and gentamicin were added at 3 hours to kill extracellular bacteria and cells were harvested. Bacteria treated with HABP01 were internalized approximately 40-fold more efficiently than SCRM-treated or untreated samples, and at similar levels to those obtained with acapsular GAS. Internalization of acapsular GAS was unaffected by either peptide.

[6] = test system: P. multocida; experiment: Bacterial translocation through polarized keratinocyte cultures (Transwell); assay type: cell-based, Pasteurella multocida; conditions: 100 μg/ml; vs PBS or SCRM
Protocol: (§3) Cell cultures: For the preparation of in vitro keratinocyte cultures, human primary OKP7 cells were derived from the oropharynx. Keratinocytes were seeded at 5×10^5 cells per well onto polycarbonate Transwell membrane supports (12 well plates, 3.0 μm pore size; Costar) or tissue culture treated plastic ware and cultured for 5-10 days at 37° C. with 5% humidified CO2 in cSFM medium with daily medium changes. Once confluent, the calcium concentration of the cSFM was increased to 1.2 mM and cells were cultured for 2 more days, before the integrity of the monolayer was assessed by measuring permeability to sodium fluorescein, and in some experiments, by measuring transepithelial electrical resistance.
(§4) Infection procedures: Keratinocyte layer cultures in Transwell inserts were inoculated in the upper chamber with GAS, S. equi, S. uberis, and P. multocida at a multiplicity of infection (MOI) of 1 bacterium per keratinocyte in the presence or absence of HABP01 or SCRM. Infected cultures were incubated at 37° C. with 5% CO2 for the desired time. In translocation experiments, Transwell inserts containing the keratinocytes were moved to new wells containing fresh medium every 2 hours to prevent overgrowth of bacteria that had translocated through the keratinocytes layer to the lower chamber. Bacterial translocation was quantified by culturing medium from the lower chamber at 2-hour intervals. […]

[7] = test system: GAS; experiment: as above; assay type: cell-based, Group A Streptococcus; conditions: vs PBS or SCRM
Protocol: as §3
Infection procedures: Keratinocyte layer cultures in Transwell inserts were inoculated in the upper chamber with GAS, S. equi, S. uberis, and P. multocida at a multiplicity of infection (MOI) of 1 bacterium per keratinocyte in the presence or absence of HABP01 or SCRM. Infected cultures were incubated at 37° C. with 5% CO2 for the desired time. In translocation experiments, Transwell inserts containing the keratinocytes were moved to new wells containing fresh medium every 2 hours to prevent overgrowth of bacteria that had translocated through the keratinocytes layer to the lower chamber. Bacterial translocation was quantified by culturing medium from the lower chamber at 2-hour intervals.
Bacterial translocation studies were performed to assess the impact of HABP01 on bacterial paracellular translocation through polarized keratinocyte cultures.
Incubation of GAS in the presence of HABP33, HABP35 and HABP42, also delayed GAS translocation. At two hours after the addition of GAS to the keratinocytes, approximately 530 CFU of GAS were detected in the lower level in cultures treated with PBS or SCRM peptide.

[8] = test system: GAS; experiment: Opsonophagocytic assay with human neutrophils; assay type: cell-based, Group A Streptococcus; conditions: 50 μg/ml, 2 hours incubation with human neutrophils, 10% absorbed human serum
Protocol: Encapsulated GAS are resistant to killing by neutrophils in opsonophagocytic assays in the absence of antibodies that bind the bacterial surface. HABPs binding to the bacterial surface may facilitate neutrophil cytotoxicity. Opsonophagocytic assays were performed wherein GAS were incubated with 50 μg/ml of SCRM, HABP01 or HABP35 and mixed with human neutrophils in medium containing 10% absorbed human serum. Aliquots (25 μl) for quantitative culture were withdrawn immediately after mixing neutrophil with GAS and after 2 hr incubation at 37° C. The log increase or decrease in CFU's was calculated. After 2 hours of incubation, there was about a 1.5 log increase in CFU's for GAS treated with PBS or SCRM.

[9] = Fluorometry binding of FITC-conjugated peptide to purified HA in well; design: species or system rooster
Protocol: Lyophilized synthetic peptides were resuspended in PBS pH7.4 prior to use in either in vitro or in vivo experiments. Fluorescein conjugation of HABP01 and SCRM was performed using 5,6 carboxyfluorescein, succinimidyl ester (5,6 FAM) (Molecular Probes, Portland, Oreg.) as per manufacturer's instructions and separated on a Sephadex G-25 column (Amersham, Piscataway, N.J.). Purified, high molecular weight rooster comb HA (Sigma-Aldrich, St Louis, Mo.) was used as a positive control for BP binding.
as §2

[10] = test system: Acapsular GAS; experiment: Fluorometry binding of FITC-conjugated peptide to capsule-deficient GAS; design: species or system Group A Streptococcus
Protocol: as §1, §2

[11] = test system: S. equi; experiment: Bacterial translocation through polarized keratinocyte cultures (Transwell); assay type: cell-based, Streptococcus equi; conditions: 100 μg/ml; vs PBS or SCRM
Protocol: as §3, §4

[12] = test system: Staphylococcus aureus; experiment: as above; assay type: cell-based; conditions: 100 μg/ml; vs PBS or SCRM
[13] = fluorometry, HABP35 also confocal microscopy, data not shown

## CC[C@H](C)[C@H](NC(=O)[C@H](CCCCN)NC(=O)[C@H](CCC(N)=O)NC(=O)[C@H](CCCCN)NC(=O)[C@@H](N)CC(C)C)C(=O)N[C@@H](CCCCN)C(=O)N[C@@H](Cc1c[nH]cn1)C(=O)N[C@H](C(=O)N[C@H](C(=O)N[C@@H](CCCCN)C(=O)N[C@@H](CC(C)C)C(=O)N[C@@H](CCCCN)C(=O)N[C@H](C(=O)N[C@H](C(=O)N[C@H](C(=O)N[C@@H](CCCCN)C(=O)N[C@@H](CC(C)C)C(=O)N[C@@H](CCCNC(=N)N)C(=O)N[C@@H](CO)C(=O)N[C@@H](CCC(N)=O)C(=O)N[C@@H](CC(C)C)C(=O)N[C@H](C(=O)N[C@@H](CCCCN)C(=O)N[C@@H](CCCNC(=N)N)C(=O)N[C@@H](CCCCN)C(=O)N[C@@H](CCC(N)=O)C(=O)N[C@@H](CC(N)=O)C(N)=O)C(C)C)C(C)C)C(C)C)C(C)C)C(C)C)C(C)C [HABP35] (H-LKQKIKHVVKLKVVVKLRSQLVKRKQN-NH2)
[1]; highest concentration tested, 512 μg/mL, 1% human red blood cells, 12 hours, 37° C.
  hemolytic activity: minor hemolytic activity

## CC[C@H](C)[C@H](NC(=O)CN)C(=O)NCC(=O)N[C@@H](C)C(=O)N[C@H](C(=O)N[C@@H](CC(C)C)C(=O)N[C@@H](CCCCN)C(=O)N[C@H](C(=O)N[C@@H](CC(C)C)C(=O)N[C@H](C(=O)N[C@H](C(=O)NCC(=O)N[C@@H](CC(C)C)C(=O)N1CCC[C@H]1C(=O)N[C@@H](C)C(=O)N[C@@H](CC(C)C)C(=O)N[C@H](C(=O)N[C@@H](CO)C(=O)N[C@@H](Cc1c[nH]c2ccccc12)C(=O)N[C@H](C(=O)N[C@@H](CCCCN)C(=O)N[C@@H](CCCNC(=N)N)C(=O)N[C@@H](CCCCN)C(=O)N[C@@H](CCCNC(=N)N)C(=O)N[C@@H](CCC(N)=O)C(=O)N[C@@H](CCC(N)=O)C(N)=O)[C@@H](C)CC)[C@@H](C)CC)[C@@H](C)O)[C@@H](C)O)C(C)C)C(C)C [Melittin]
[2]
  average net binding to HA: −503±5 RU
[1]; 1% human red blood cells, 12 hours
  concentration giving levels of hemolysis comparable to HABP35 at 512 μg/mL: less than 1 μg/mL
[1]; comparison with HABP35
  potency as a hemolytic agent relative to HABP35: more than 500 times

## STMMSRSHKTRSHHV (all d isomers) ([dS][dT][dM][dM][dS][dR][dS][dH][dK][dT][dR][dS][dH][dH][dV]-NH2) [HABP42]
[3]
  bacterial burden at the wound site compared with PBS: decrease in bacterial burden

## STMMSRSHKTRSHHV [HABP01]
[4]; [13]
  binding to encapsulated GAS (in words): bound specifically
[4]; substrate in well: Wild Type GAS, 10 μg/ml FITC-conjugated peptide
  Relative binding: 11840 ± 230 relative fluorescent units
[5]
  internalization of HA-encapsulated bacteria by keratinocytes relative to SCRM-treated or untreated samples: approximately 40 fold
[6]
  reduction in translocation of P. multocida: 98%
[7]; 100 μg/ml, treatment of keratinocytes or bacteria
  reduction in the translocation of GAS across an intact keratinocyte culture: 75-85%
[8]
  log increase in CFU's: over 1 log
[9]; fluorometry
  binding to purified HA (in words): bound specifically
[9]; substrate in well: HA (1 mg/ml), 10 μg/ml FITC-conjugated peptide
  Relative binding: 9640 ± 360 relative fluorescent units
[10]; [13]
  binding to unencapsulated GAS (in words): not to unencapsulated GAS
[10]; substrate in well: Acapsular GAS, 10 μg/ml FITC-conjugated peptide
  Relative binding: 1940 ± 70 relative fluorescent units
[11]
  reduction in translocation of S. equi: 98%
[12]
  reduction in translocation of Staphylococcus aureus: 73%

## VSKLRSQLVKRKQN (VSKLRSQLVKRKQN-NH2) [HABP33]
[7]; two hours after addition of GAS
  decrease in the numbers of translocating GAS bacteria: ~90%
